Test system: 616215-338-R-J1-PDC tumor spheroids, viability
Assay: Anticancer human tumor 616215-338-R-J1-PDC patient-derived colon adenocarcinoma cell line growth inhibition [GQUAD]
Conditions: spheroids with HUVEC and MSC; for IC50: curve of first compound; for viability, T/C: stronger effect = lower value
Procedure, shortened: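 Tumor cells were grown as complex spheroids with HUVEC endothelial cells and mesenchymal stem cells as stroma. G-quadruplex stabilizers were combined with targeted agents over half-log dilutions from near the clinical Cmax, or from 10 microM.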

[1] = second compound 0.0316 µM, first compound 0.0316 µM
[2] = second compound 0.0316 µM, first compound 0.1 µM
[3] = second compound 0.0316 µM, first compound 0.316 µM
[4] = second compound 0.0316 µM, first compound 1 µM
[5] = second compound 0.0316 µM, first compound 3.16 µM
[6] = second compound 0.0316 µM, first compound 10 µM
[7] = second compound 0.1 µM, first compound 0.0316 µM
[8] = second compound 0.1 µM, first compound 0.1 µM
[9] = second compound 0.1 µM, first compound 0.316 µM
[10] = second compound 0.1 µM, first compound 1 µM
[11] = second compound 0.1 µM, first compound 3.16 µM
[12] = second compound 0.1 µM, first compound 10 µM
[13] = second compound 0.316 µM, first compound 0.0316 µM
[14] = second compound 0.316 µM, first compound 0.1 µM
[15] = second compound 0.316 µM, first compound 0.316 µM
[16] = second compound 0.316 µM, first compound 1 µM
[17] = second compound 0.316 µM, first compound 3.16 µM
[18] = second compound 0.316 µM, first compound 10 µM
[19] = second compound 1 µM, first compound 0.0316 µM
[20] = second compound 1 µM, first compound 0.1 µM
[21] = second compound 1 µM, first compound 0.316 µM
[22] = second compound 1 µM, first compound 1 µM
[23] = second compound 1 µM, first compound 3.16 µM
[24] = second compound 1 µM, first compound 10 µM
[25] = second compound 3.16 µM, first compound 0.0316 µM
[26] = second compound 3.16 µM, first compound 0.1 µM
[27] = second compound 3.16 µM, first compound 0.316 µM
[28] = second compound 3.16 µM, first compound 1 µM
[29] = second compound 3.16 µM, first compound 3.16 µM
[30] = second compound 3.16 µM, first compound 10 µM
[31] = second compound 10 µM, first compound 0.0316 µM
[32] = second compound 10 µM, first compound 0.1 µM
[33] = second compound 10 µM, first compound 0.316 µM
[34] = second compound 10 µM, first compound 1 µM
[35] = second compound 10 µM, first compound 3.16 µM
[36] = second compound 10 µM, first compound 10 µM
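Further: spheroids exposed to agents for 7 days before readout.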
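Wherever viability, T/C is given: percent viability relative to DMSO vehicle control wells taken as 100%.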

CC(C)n1c(=O)n(C)c2cnc3cc(F)c(-c4ccc(OCCCN5CCCCC5)nc4)cc3c21 + CN(C)c1ccc(Nc2c3ccc(NC(=O)CCN4CCCC4)cc3nc3cc(NC(=O)CCN4CCCC4)ccc23)cc1
IC50 (second compound 0.0316 µM): > 10000 nM
IC50 (second compound 0.1 µM): > 10000 nM
IC50 (second compound 0.316 µM): > 10000 nM
IC50 (second compound 1 µM): > 10000 nM
IC50 (second compound 3.16 µM): 9930 nM
IC50 (second compound 10 µM): 3090 nM
viability, T/C [1]: 110%
viability, T/C [2]: 112%
viability, T/C [3]: 96.3%
viability, T/C [4]: 109%
viability, T/C [5]: 105%
viability, T/C [6]: 62.2%
viability, T/C [7]: 110%
viability, T/C [8]: 104%
viability, T/C [9]: 101%
viability, T/C [10]: 111%
viability, T/C [11]: 103%
viability, T/C [12]: 81.1%
viability, T/C [13]: 97.2%
viability, T/C [14]: 99.7%
viability, T/C [15]: 97.8%
viability, T/C [16]: 103%
viability, T/C [17]: 121%
viability, T/C [18]: 95.7%
viability, T/C [19]: 101%
viability, T/C [20]: 97.2%
viability, T/C [21]: 103%
viability, T/C [22]: 97.9%
viability, T/C [23]: 111%
viability, T/C [24]: 83.5%
viability, T/C [25]: 105%
viability, T/C [26]: 101%
viability, T/C [27]: 101%
viability, T/C [28]: 91.9%
viability, T/C [29]: 100%
viability, T/C [30]: 49.6%
viability, T/C [31]: 95.8%
viability, T/C [32]: 77.1%
viability, T/C [33]: 55.6%
viability, T/C [34]: 64.6%
viability, T/C [35]: 61.6%
viability, T/C [36]: 7.08%

COc1cc(C2c3cc4c(cc3C(OC3OC5COC(C)OC5C(O)C3O)C3COC(=O)C23)OCO4)cc(OC)c1O (centres undefined) + Cc1cnc(CNC(=O)c2c(=O)c3ccc(N4CCCN(C)CC4)nc3n3c2sc2ccccc23)cn1
IC50 (second compound 0.0316 µM): 481 nM
IC50 (second compound 0.1 µM): 456 nM
IC50 (second compound 0.316 µM): < 31.6 nM
IC50 (second compound 1 µM): < 31.6 nM
IC50 (second compound 3.16 µM): < 31.6 nM
IC50 (second compound 10 µM): < 31.6 nM
viability, T/C [1]: 104%
viability, T/C [2]: 98.3%
viability, T/C [3]: 54.3%
viability, T/C [4]: 44.2%
viability, T/C [5]: 57.3%
viability, T/C [6]: 23.9%
viability, T/C [7]: 65.7%
viability, T/C [8]: 61%
viability, T/C [9]: 55.8%
viability, T/C [10]: 38.8%
viability, T/C [11]: 32.2%
viability, T/C [12]: 30.6%
viability, T/C [13]: 39.5%
viability, T/C [14]: 46.2%
viability, T/C [15]: 29.3%
viability, T/C [16]: 36.3%
viability, T/C [17]: 30.6%
viability, T/C [18]: 17.7%
viability, T/C [19]: 32.3%
viability, T/C [20]: 32.8%
viability, T/C [21]: 33.8%
viability, T/C [22]: 34.3%
viability, T/C [23]: 23.3%
viability, T/C [24]: 18.4%
viability, T/C [25]: 34.5%
viability, T/C [26]: 23.7%
viability, T/C [27]: 28.3%
viability, T/C [28]: 27%
viability, T/C [29]: 28.2%
viability, T/C [30]: 24.3%
viability, T/C [31]: 28.2%
viability, T/C [32]: 29.7%
viability, T/C [33]: 26.6%
viability, T/C [34]: 36.3%
viability, T/C [35]: 22.3%
viability, T/C [36]: 23.8%

From PubChem BioAssay AID2060493 (Molecular Pharmacology Branch, DTP, NCI, 2025)
